Results as given in patent publication US11014934B2, “Antiseptic drug” (AO “TATKHIMFARMPREPARATY”, priority 2017, dated 2021).
Read-outs that look alike come from different tables or passages of the source.

Tests used:
gram-negative bacteria = test: MIC screening, summary for gram-negative bacteria; assay type: cell-based
Protocol: (§1) A comparative assessment of the spectrum of antibacterial action was carried out on archival and clinical strains of gram-positive and gram-negative microorganisms in accordance with the [Opredeleniye chuvstvitel'nosti mikroorganizmov k antibakterial'nym preparatam (Metodicheskiye ukazaniya MUK 4.2.1890-04). Utverzhdeny i vvedeny v deystviye Glavnym gosudarstvennym sanitarnym vrachom Rossiyskoy Federatsii G. G. Onishchenko 04.03.2004 g. Determination of the sensitivity of microorganisms to antibacterial drugs (Guidelines MUK 4.2.1890-04). Approved and put into effect by the Chief State Sanitary Doctor of the Russian Federation G. G. Onishchenko on 4 Mar. 2004].
(§2) The value of the minimum inhibitory concentration (MIC) was determined by the method of serial dilutions on Müller-Hinton broth using 96-well sterile plates. Two-fold dilutions of the test substances in a nutrient medium were prepared. The final concentrations were 1-128 ug/ml. The growth of cultures was assessed visually, comparing the growth of microorganisms in the presence of test compounds with the growth of culture without them. […] The first lowest concentration of the studied substance (from a series of consecutive dilutions), where bacterial growth is not visually determined, is considered to be the minimum inhibitory concentration (MIC). MIC was determined by the method of serial dilutions in broth with increment=2, so the differences of neighboring dilutions are not considered to be significant. In each experience there is a positive (broth with growing culture) and a negative (broth without growing culture) control.
To determine the MIC, 10 μl of culture medium was taken from those wells in which growth was not observed, and inoculation was performed on a dense Müller-Hinton broth. For the preparation of the inoculum, a pure, daily culture of gram-positive and gram-negative microorganisms grown on a dense nutrient medium was used. Nutrient medium is Müller-Hinton broth, which was prepared from dry media (Müller-Hinton broth, Acumedia, Baltimore), cultivation was carried out on agarized Müller-Hinton broth, including an additional 2% agar. The media were autoclaved at 121° C. for 15 minutes. […] The inoculum was used within 15 minutes after preparation; the purity of the bacterial strains was monitored before each experiment.
100 μl of Müller-Hinton broth was added to the wells of each plate; The tested substance was introduced into the first well at a concentration of 128 μg/ml in a volume of 100 μl and its concentration was adjusted to 0.5 μg/ml by consecutive two-fold dilution. […] In addition, the purity of nutrient media and solvents was monitored. […] The growth of cultures was assessed visually, comparing the growth of microorganisms in the presence of test compounds with the growth of culture without them. […]

all bacterial strains = test: MIC screening, summary for all bacterial strains; assay type: cell-based
Protocol: as §1
as §2, with “Two-fold dilutions of the test substances in a nutrient medium were prepared. The final concentrations were 1-128 ug/ml.” left out, “In each experience there is a positive (broth with growing culture) and a negative (broth without growing culture) control.” left out

C. albicans = test: Sensitivity of microscopic fungi in solution (colonies after exposure); assay type: cell-based
Protocol: (§3) For the preparation of inoculum, were respectively used pure (2-5) days cultures of yeast and mycelial fungi, grown on Saburo's dense nutrient broth. Inoculum for plating was prepared in different ways, depending on the type of fungi. Thus, yeast crops (C. albicans) were prepared by washing the culture from an agar stroke. Cultures of mycelial fungi (Rh. oryzae, Asp. fumigatus) were pre-degraded in a pounder. A suspension of microorganisms was prepared in a sterile isotonic sodium chloride solution, bringing the inoculum density to 5 UNITS (GISK [State Research Institute of Standardization and Control] named after L. A. Tarasevich) or according to the McFarland standard 1 UNIT with a concentration of at least 1×10^6 CFU/ml, considering that the size of the fungal elements is approximately 10 times the size of bacteria (this provided the possibility of creating a mixture of biocide with suspension, the concentration of microorganisms of the order of 1×10^5 CFU/ml).
(§4) Solutions of compound I, miramistin, and benzalkonium chloride in working concentrations (0.1%, 0.2%, 0.3%) were poured into sterile 0.9 ml tubes. 0.1 ml of microbial suspension was added to test tubes with disinfectant solutions and mixed by shaking for several seconds. The exposition lasted for 1, 5, and 15 minutes. After required temporary exposure for action of the disinfectant, 0.5 ml of the neutralizer solution was added and mixed by shaking.
(§5) Then, 0.1 ml of the mixture was inoculated on a dense nutrient medium and the plates with inoculate were placed in a thermostat with a temperature of 27° C. for (2-4) days for yeast and (5-7) days for mycelial fungi, respectively.
(§6) After the time required for the cultivation of microorganisms of this species, the results were counted according to the number of colonies grown on the Petri dish. In the absence of growth, the time for culturing microorganisms was increased by a factor of 2. The grown colonies were subjected to microscopy.
(§7) The tested substances were studied on clinical and archival strains of yeast and mycelial fungi. As comparison drugs, drugs commonly used in clinical practice were used: miramistin and benzalconium chloride. After the required exposure time for action of the disinfectant, a series of 0.1 ml mixture was aseptically plated on the surface of a dense nutrient medium in Petri dishes. After the time of cultivation of microorganisms, the results were counted according to the number of colonies grown on the Petri dish.

Asp. fumigates = test: as above; assay type: cell-based
Protocol: as §3, §4, §5, §6, §7

mice = conditions: intragastric administration on mice; literature and safety data sheets; cited from earlier work

Row | Molecule | MIC (gram-negative bacteria; in 11 strains) [µg/mL] | MIC (gram-negative bacteria; in 12 strains) [µg/mL] | MIC (gram-negative bacteria; in 18 strains) [µg/mL] | MIC (all bacterial strains; read-out: MIC100) [µg/mL] | Number of colonies grown in a Petri dish (C. albicans; exposure 1 min, 0.1% solution) | Number of colonies grown in a Petri dish (C. albicans; exposure 5 min, 0.1% solution) | Number of colonies grown in a Petri dish (Asp. fumigates; exposure 5 min, 0.1% solution) | LD50 (mice) [mg/kg] | MIC (gram-negative bacteria; Escherichia coli, ATCC25922, range, with the exception for the archival strain E. coli ATCC 25922) [µg/mL] | MIC (all bacterial strains; all bacterial strains, read-out: MIC89) [µg/mL] | Number of colonies grown in a Petri dish (C. albicans; exposure 1 min, 0.2% solution) | Number of colonies grown in a Petri dish (Asp. fumigates; exposure 1 min, 0.1% solution) | Number of colonies grown in a Petri dish (Asp. fumigates; exposure 1 min, 0.2% solution) | Number of colonies grown in a Petri dish (Asp. fumigates; exposure 15 min, 0.1% solution)
1 | CCCCCCCCCCCC[N+](C)(C)Cc1cnc(C[N+](C)(C)CCCCCCCCCCCC)c2c1COC(CC)O2 (stereo not drawn) [Compound I, 5,8-(Bis(methylene (N, N-dimethyl-N-dodecylammonium))-2-ethyl-4H-[1,3]dioxino [4,5-c]pyridiniumdichloride] | 2 to 4 | 32 to 64 | 8 to 16 | < 64 | 3 | 1 | 1 | – | – | – | – | – | – | –
2 | CCCCCCCCCCCCCC(=O)NCCC[N+](C)(C)Cc1ccccc1.O.[Cl-] [Miramistin, benzyldimethyl [3-(myristoylamino)propyl]-ammonium chloride monohydrate] | – | – | – | – | 12 | 7 | 12 | 1000 | 32 to 64 | < 64 | 5 | 20 | 10 | 2
3 | alkyldimethyl(phenylmethyl) ammonium chloride [Benzalconium chloride] | – | – | – | – | – | – | – | 150 | – | – | – | – | – | –
